{"source": "the OPERA property sets (Mansouri et al. 2018)", "data": [{"conditions": "not given", "units": {"melting point": "°C", "boiling point": "°C"}, "values": [{"smiles": "Cc1cnc(C(=O)O)c[n+]1[O-]", "melting point": 178}, {"smiles": "O=C(OCC(=O)N1CCC[C@H]1C(=O)O)c1ccccc1", "melting point": 116}, {"smiles": "ClCc1cccc(CCl)c1", "boiling point": 252, "melting point": 34.2}, {"smiles": "CCCCCCCCCCCCS", "boiling point": 274, "log10 vapour pressure (mmHg)": -2.07, "melting point": -8}, {"smiles": "COP(=O)(OC)C(O)C(Cl)(Cl)Cl", "note": "(stereo unspecified)", "log10 Koc (L/kg)": 1.9, "log10 vapour pressure (mmHg)": -5.11, "melting point": 77, "ready biodegradability": "not readily biodegradable"}, {"smiles": "CC1CCOC1", "note": "(stereo unspecified)", "boiling point": 86.5}, {"smiles": "CC(C)CC(N)=O", "boiling point": 226, "melting point": 137}, {"smiles": "O=C(O)c1ccc2ccccc2n1", "melting point": 156, "ready biodegradability": "readily biodegradable"}, {"smiles": "O=C1CCCN1CCO", "boiling point": 295, "melting point": 20}, {"smiles": "CCCCOCCOP(=O)(OCCOCCCC)OCCOCCCC", "melting point": -70, "ready biodegradability": "not readily biodegradable"}, {"smiles": "NNC(=O)c1ccc(Br)cc1", "melting point": 166}, {"smiles": "C[Si](C)(Cl)O[Si](C)(C)O[Si](C)(C)Cl", "boiling point": 184, "melting point": -53}, {"smiles": "O=C(O)CC1CCCCC1", "boiling point": 245, "melting point": 33}, {"smiles": "C[B]C", "boiling point": 70.5, "melting point": -72.5}, {"smiles": "Oc1c(I)cc(I)c2cccnc12", "melting point": 210}, {"smiles": "CCCN(CCC)c1c([N+](=O)[O-])cc(S(N)(=O)=O)cc1[N+](=O)[O-]", "log10 Koc (L/kg)": 3.4, "melting point": 141, "ready biodegradability": "not readily biodegradable"}, {"smiles": "CC(=O)Cl", "boiling point": 50.7, "log10 vapour pressure (mmHg)": 2.46, "melting point": -113}, {"smiles": "Cc1cc(NC(N)=O)ccc1Br", "log10 Koc (L/kg)": 2.37}, {"smiles": "Cc1cc(=O)oc2cc(O)c(O)cc12", "melting point": 275}, {"smiles": "CC1=C(C(=O)O)N2C(=O)[C@@H](NC(=O)[C@H](N)C3=CCC=CC3)[C@H]2SC1", "melting point": 140}, {"smiles": "O=[N+]([O-])c1c(O)c(Cl)cc(Cl)c1Cl", "melting point": 92.5}, {"smiles": "Cc1c(C)c([N+](=O)[O-])c(C(C)(C)C)c([N+](=O)[O-])c1C", "melting point": 136}, {"smiles": "N#CCCCCC#N", "boiling point": 295, "log10 vapour pressure (mmHg)": -3.17, "melting point": 1, "ready biodegradability": "readily biodegradable"}, {"smiles": "CN(C)NC(=O)CCC(=O)O", "log10 Koc (L/kg)": 0.95, "melting point": 154}, {"smiles": "CC(C)CC(=O)OCc1ccccc1", "boiling point": 245}, {"smiles": "O=C(O)C1CCCCN1", "note": "(stereo unspecified)", "melting point": 264}, {"smiles": "CC1=CCC(C(C)(C)O)C[C@@H]1O", "note": "(stereo partly specified)", "boiling point": 270, "melting point": 130}, {"smiles": "Cc1cnccn1", "boiling point": 137, "log10 Henry constant (atm·m³/mol)": -5.66, "log10 vapour pressure (mmHg)": 0.906, "melting point": -29}, {"smiles": "CCCCOC(=O)c1ccccc1C(=O)OC1CCCCC1", "log10 vapour pressure (mmHg)": -5.32}, {"smiles": "O=[N+]([O-])c1cccc(I)c1", "boiling point": 280, "melting point": 38.5}, {"smiles": "CNC(=O)N(C)c1nnc(C(C)(C)C)s1", "log10 Henry constant (atm·m³/mol)": -9.92, "log10 Koc (L/kg)": 1.83, "log10 vapour pressure (mmHg)": -5.7}, {"smiles": "Oc1cc(O)c2c(c1)O[C@H](c1ccc(O)c(O)c1)[C@@H](O)C2", "log10 Koc (L/kg)": 2.03}, {"smiles": "COc1ccc(C(=O)CCC(=O)O)cc1", "melting point": 149}, {"smiles": "CCCCCCCCCCCCCCCCCCOS(=O)(=O)[O-].[Na+]", "melting point": 212}, {"smiles": "O=C1CCCCC1=O", "boiling point": 194, "melting point": 40}, {"smiles": "O=C1C=CC(=O)c2c(O)cccc21", "melting point": 155}, {"smiles": "Cc1cc(C)c(NC(=O)CN(CC(=O)O)CC(=O)O)c(C)c1Br", "melting point": 199}, {"smiles": "CCCCCCCC(C)=O", "boiling point": 195, "log10 Henry constant (atm·m³/mol)": -3.44, "log10 vapour pressure (mmHg)": -0.205, "melting point": -7.5}, {"smiles": "Nc1c(Cl)c(Cl)cc(Cl)c1Cl", "log10 Koc (L/kg)": 3.94, "melting point": 107}, {"smiles": "CCCCCCCCNC(C)C(O)c1ccc(SC(C)C)cc1", "note": "(stereo unspecified)", "melting point": 62.5}, {"smiles": "CCCC(C)(COC(N)=O)COC(N)=O", "melting point": 105}, {"smiles": "CCCCC(C(=O)O)C(=O)N(Nc1ccccc1)c1ccccc1", "note": "(stereo unspecified)", "melting point": 116}, {"smiles": "Cc1ccccc1NC(N)=S", "melting point": 162}, {"smiles": "CCC1=C(C[C@@H]2NCCc3cc(OC)c(OC)cc32)C[C@H]2c3cc(OC)c(OC)cc3CCN2C1", "melting point": 95}, {"smiles": "C=C(Cl)CSC(=S)N(CC)CC", "log10 vapour pressure (mmHg)": -2.66}, {"smiles": "FC(F)(Cl)C(F)(Cl)Cl", "boiling point": 47.7, "log10 vapour pressure (mmHg)": 2.56, "melting point": -35, "ready biodegradability": "not readily biodegradable"}, {"smiles": "C=CCS", "boiling point": 65, "log10 vapour pressure (mmHg)": 2.72}, {"smiles": "CC1NC(C)SC(C)S1", "note": "(stereo unspecified)", "melting point": 46}, {"smiles": "NS(=O)(=O)c1ccc(N2C(=O)CC(c3ccccc3)C2=O)c(Cl)c1", "note": "(stereo unspecified)", "melting point": 206}, {"smiles": "C=CCCC=O", "boiling point": 99}, {"smiles": "CCCCCCCC1CCCC(=O)O1", "note": "(stereo unspecified)", "melting point": -12}, {"smiles": "CCCCC(=O)O[C@]1(C(=O)CO)CC[C@H]2[C@@H]3CCC4=CC(=O)CC[C@]4(C)[C@H]3[C@@H](O)C[C@@]21C", "melting point": 218}, {"smiles": "OCCC1CCCCN1", "note": "(stereo unspecified)", "boiling point": 202, "melting point": 69}, {"smiles": "CCCCC(CC)COCC(CC)CCCC", "note": "(stereo unspecified)", "boiling point": 269}, {"smiles": "COc1cc(OC)nc(NC(=O)NS(=O)(=O)c2c(-c3nnn(C)n3)cnn2C)n1", "log10 Koc (L/kg)": 1.89, "log10 vapour pressure (mmHg)": -10.5, "melting point": 170}, {"smiles": "OCC1CCCO1", "note": "(stereo unspecified)", "boiling point": 178, "log10 vapour pressure (mmHg)": -0.0964, "ready biodegradability": "readily biodegradable"}]}, {"conditions": "fish", "values": [{"smiles": "CN(C)C(=S)SSC(=S)N(C)C", "log10 BCF": 0.53, "log10 biotransformation half-life (days)": -1.18}, {"smiles": "Clc1c(Cl)c(Cl)c2c(c1Cl)Oc1c(Cl)c(Cl)c(Cl)c(Cl)c1O2", "log10 BCF": 3.12, "log10 biotransformation half-life (days)": 1.16}, {"smiles": "ClC(Cl)=C(Cl)Cl", "log10 BCF": 1.72, "log10 biotransformation half-life (days)": -0.88}, {"smiles": "CCN(CC)c1ccccc1", "log10 BCF": 2.01}, {"smiles": "Nc1cc(S(=O)(=O)O)cc2cc(S(=O)(=O)[O][Na])cc(O)c12", "log10 BCF": 0.46}, {"smiles": "CCCCOCCOP(=O)(OCCOCCCC)OCCOCCCC", "log10 BCF": 0.76}, {"smiles": "O=C(Nc1ccc2c(O)cc(S(=O)(=O)O)cc2c1)Nc1ccc2c(O)cc(S(=O)(=O)O)cc2c1", "log10 BCF": 0.26}, {"smiles": "Nc1c(Cl)c(Cl)cc(Cl)c1Cl", "log10 BCF": 2.52}, {"smiles": "FC(F)(Cl)C(F)(Cl)Cl", "log10 BCF": 1.7}, {"smiles": "CCCCC(CC)COC(=O)c1nc(Cl)c(Cl)c(N)c1Cl", "note": "(stereo unspecified)", "log10 biotransformation half-life (days)": 0.45}]}]}
